Literature values as cited in patent EP1190712A1 (SMB Technology, priority 2000, dated 2002).

Settings: human, in vivo

COc1cccc(C2(O)CCCCC2CN(C)C)c1 (stereo not shown) [Tramadol]
Cmax (time): 30 to 60 min
